# From patent US11173140B2, “Dosing regimens of PKC activators” (COGNITIVE RESEARCH ENTERPRISES, INC., priority 2015, dated 2021)
# What was measured:
# [1] = system: advanced AD patients; experiment: Compassionate use study: cognitive function and behavior (MMSE, ADL-siv); type: in vivo, human
# Method: FIG. 1 illustrates, inter alia, the level of PKCε in the blood of a human subject receiving 25 μg/m^2 of bryostatin as a single weekly dose for three consecutive weeks followed by cessation of dosing for one week and then two additional weeks of dosing at 25 μg/m^2.
# FIG. 1 illustrates early results of a compassionate use (CU) study involving human advanced AD patients. […] The administration comprised three consecutive weeks of dosing followed by cessation for one week and then two additional weeks of dosing. Standard psychometric tests were used to measure cognitive functions and behaviors. The study also evaluated the relationship between the level of bryostatin's target, PKC epsilon, in the blood and the cognitive measurements.
# Observed improvements included restored speech and word recognition, restored swallowing, lowered or prevented hallucinations, and improved complex motor functions. […] For example, the observed behavioral improvements included restoration of speech and word recognition, restoration of swallowing, disappearance of hallucinations, return of complex motor activity, including swimming, billiards, conversational interactions, and orientation in time and space.
# The decline closely tracked the decline in PCK-ε levels, as illustrated in FIG. 1. The observed decline was due to a well-known phenomenon that follows PKC activation called “downregulation”. Sustained clinical improvements in these patients with advanced AD were mitigated by the downregulation of the bryostatin target, PKC-ε. From these preliminary observations the inventors hypothesized that an intermittent dosing regimen of bryostatin was more suitable for maintaining cognitive benefits in AD patients.
# [2] = Bryostatin levels in brain and plasma (HPLC-MS), crossing of blood-brain barrier; type: in vivo, mice; settings: for bryostatin (% of Control), BRAIN: mouse brain; for bryostatin (% of Control), PLASMA: mouse plasma
# Method: FIG. 5 illustrates the steady state concentration of bryostatin in the brain and plasma of mice following intravenous administration at the indicated doses.
# Further evaluation was performed on bryostatin crossing the blood-brain-barrier (BBB) and the steady state levels of bryostatin in the brain and plasma of mice. […] The concentration of bryostatin in mice brain was less than its concentration in plasma.
# In these studies, bryostatin was administered intravenously (i.v.) by injection into the tail vein of a mouse. Stock solutions of bryostatin were prepared in dimethyl sulfoxide (DMSO). Prior to administration to a mouse, the stock DMSO solution of bryostatin was diluted to a predetermined concentration by dilution with phosphate buffered saline/saline (PBS/saline).
# The brain, whole blood, and plasma of mice in each dosing group as well as control mice was collected at 1 hour, 24 hours and 7 days after the last injection of bryostatin. PBMC's were isolated from blood and the brain, blood, plasma and PBMC's were frozen immediately using dry ice. Prior to analysis PBMC's were counted by diluting the sample (10 μl aliquot), 10-fold and the PBMC's counted using a Millipore Scepter cell counter. Every group of test animals had its own control group (N=3). Mice in the control group were injected with vehicle at a frequency similar to the dosing regimen and these animals were sacrificed and tested in parallel with mice in the test group.
# Each measurement was performed four times (X4). BDNF levels were measured using ELISA and the concentration of protein PSD-95 was measured by Western Blot. High performance liquid chromatography-mass spectral analysis was used to measure the concentration of bryostatin in blood and brain samples based on a standard curve. Total protein concentrations were measured Coomassie Plus (Bradford) Protein Assay kit.
# The therapeutic efficacy of bryostatin depends at least in part on its ability to cross the blood-brain-barrier (BBB). To evaluate whether dosing regimen influences the bryostatin levels in brain, mice were administered the drug intravenously. Table 9 illustrates the effect of dose and dosing regimen on bryostatin levels in the brain and plasma of mice. Sporadic dosing increased the levels of bryostatin in brain compared to plasma. See data for mice in cages 9 and 11.
# [3] = advanced AD patients, weekly dose of 25 μg/m^2, three consecutive weeks
# [4] = cage 4: 25 μg/m^2 i.v. once weekly, 3 weeks, 24 h
# [5] = cage 6: 10 μg/m^2 i.v. once weekly, 3 weeks, 24 h
# [6] = cage 9: 25 μg/m^2 i.v., weeks 1 and 3, 24 h
# [7] = cage 11: 25 μg/m^2 i.v., weeks 1 and 2, 7 d delay
compound,measurement,setting,value
CCC/C=C/C=C/C(=O)O[C@H]1/C(=C/C(=O)OC)C[C@H]2C[C@H]([C@@H](C)O)OC(=O)C[C@H](O)C[C@@H]3C[C@H](OC(C)=O)C(C)(C)[C@](O)(C[C@@H]4C/C(=C/C(=O)OC)C[C@H](/C=C/C(C)(C)[C@]1(O)O2)O4)O3 [Bryostatin-1],maintenance of cognitive benefits,"[1]; additional bryostatin dosing in weeks 5, 6 and 8-13",failed to maintain the observed cognitive benefits
same,Activities of Daily Living-Severe Impairment Version (ADL-siv),[1]; [3],improvements
same,Mini-Mental State Examination (MMSE) score,[1]; [3],improvements
same,increase of bryostatin concentration in brain,"[2]; mice, 25 μg/m^2 weekly for three consecutive weeks versus 1 on/1 off or 2 on/1 off",less effective
same,crossing of the blood-brain-barrier,"[2]; mice, intravenous",crossed the BBB
same,plasma concentrations of bryostatin,"[2]; mice, single weekly injection for three consecutive weeks versus 1 on/1 off or 2 on/1 off",greater
same,levels of bryostatin in brain compared to plasma,"[2]; mice, sporadic dosing (cages 9 and 11)",increased
same,"bryostatin (% of Control), BRAIN",[2]; [4],0.0140 % of Control
same,"bryostatin (% of Control), BRAIN",[2]; [5],0.0202 % of Control
same,"bryostatin (% of Control), BRAIN",[2]; [6],0.0197 % of Control
same,"bryostatin (% of Control), BRAIN",[2]; [7],0.0217 % of Control
same,"bryostatin (% of Control), PLASMA",[2]; [4],0.0306 % of Control
same,"bryostatin (% of Control), PLASMA",[2]; [5],0.0287 % of Control
same,"bryostatin (% of Control), PLASMA",[2]; [6],0.0148 % of Control
same,"bryostatin (% of Control), PLASMA",[2]; [7],0.0012 % of Control
